Assay results taken from patent US20260224559A1, “FORMULATIONS FOR TREATING CANCER” (FOGHORN THERAPEUTICS INC., priority 2023, published 2026).

Experiments:
[1] = Particle size analysis of Compound A nanosuspension / microsuspension formulations; format: physicochemical; settings: jet mill feed pressure 4.5 bar, milling pressure 5.0 bar, before ball milling
Procedure: Milling was performed in a high energy ball mill with suitable sized-spherical, polymeric or Zirconium oxide beads. Compound A and excipient(s) as indicated in Table 1 were combined in deionized water per the indicated batch size and transferred to the milling chamber. Nanosuspensions A through D were generated utilizing process conditions denoted in Table 2.
Compound A was first mechanically jet-milled to reduce initial particle size prior to ball milling. The jet mill feed pressure was 4.5 bar and milling pressure was 5.0 bar. The resulting particle size of jet milled Compound A was 5-6 microns […]. […]
Compound A in a concentration range of between about 20 mg/mL to about 100 mg/mL (2-10% w/w), along with parenteral grade olive oil and 1% sorbitan monooleate [SPAN®80], was nano-milled using a high energy mill at 3000 rpm with 0.3 mm beads or 0.65 mm beads to produce microsuspensions. […] Performance of an amorphous microsuspension of Compound A was evaluated in Male SD rats. […] At each time point, approximately 0.2 mL blood was collected via jugular vein and analyzed by LC-MS/MS for mean plasma concentration of Compound A (FIG. 4). Pharmacokinetics determined that a target Cmin of 3 ng/mL was desired, which is denoted by the black dashed line in FIG. 4. […]

[2] = test system: SYO-1 human biphasic synovial sarcoma tumor cells; assay: Nanosuspension mouse efficacy study, SYO-1 xenograft tumor volume; format: in vivo; settings: SYO-1 xenograft mice, Cohorts 2-8, IV, SC, IM, 1-200 mg/kg, over 4 weeks, FIG. 3B
Procedure: (§1) Each mouse was inoculated subcutaneously on the right flank with a single cell suspension of SYO-1 human biphasic synovial sarcoma tumor cells (5×10^6) in 100 μL DMEM with 10% FBS for the tumor development. Treatment (Table 6) was started when mean tumor volume reached about 100-150 mm^3 for the efficacy cohorts. Based on the tumor volume, mice were randomly assigned to respective groups using a computer-generated randomization procedure. Corresponding formulations are in Table 6. For each dosing cohort, dosing volume was calculated based on concentration of the formulation and dose volume (ml/kg). Vehicle for IV was 20% HP-β-CD in 5 mM citrate buffer of pH 3, with adjustment to a final PH of 5. Body weight of all animals was measured and recorded twice a week throughout the study. The measurement of tumor size was conducted twice a week with a caliper and recorded. Tumor volume was used for calculation of tumor growth inhibition (TGI) value of the tumors in the treated and the control cohorts, respectively, on a given day after tumor inoculation.
64 plasma samples were collected at two time points (672 h and 676 h) from efficacy study cohorts. 64 tumor samples were collected at two time points (672 h and 676 h) from efficacy cohorts 1-8 and cut into 3 pieces: one piece for PK analysis, one piece for WB analysis (BRD9), and one piece snap frozen for further analysis (n=4). […]

[3] = Body weight / tolerability in mouse efficacy study; format: in vivo; settings: tumor-bearing mice, all doses and all modes of administration, 4 weeks, FIG. 3A
Procedure: as §1

particle size (D50) of jet milled Compound A [1]: 5-6 microns
Compound: COc1cc(-c2cn(C)c(=O)c3cnc(N4CCC4)cc23)cc(OC)c1CN1CCC(CN2CCC3(CC2)CN(c2ccc4c(c2)C(=O)N(C2CCC(=O)NC2=O)C4)C3)CC1 (stereo not drawn) [Compound A, 3-(6-(7-((1-(4-(6-(azetidin-1-yl)-2-methyl-1-oxo-1,2-dihydro-2,7-naphthyridin-4-yl)-2,6-dimethoxybenzyl)piperidin-4-yl)methyl)-2,7-diazaspiro[3.5]nonan-2-yl)-1-oxoisoindolin-2-yl)piperidine-2,6-dione]
tumor growth (tumor volume) versus Vehicle control [2]: slowed tumor growth significantly | body weight [3]: remaining fairly constant
